Test results taken from article PMC5218480 (PLoS ONE, 2017).

System: MV-4-11 cells
Test: Gene expression microarray analysis (Affymetrix PrimeView) and GSEA
Format: cell-based, human
Design: RFU PODN (11730768_x_at) / Fold change /veh PODN (11730768_x_at) / RFU LINC00158 (11744669_a_at) / Fold change /veh LINC00158 (11744669_a_at) / RFU DUSP10 (11751237_a_at) / Fold change /veh DUSP10 (11751237_a_at) / RFU ID3 (11757404_x_at) / Fold change /veh ID3 (11757404_x_at) / RFU PLEKHG5 (11737974_s_at) / Fold change /veh PLEKHG5 (11737974_s_at) / RFU LRRC4B (11730491_at) / Fold change /veh LRRC4B (11730491_at) / RFU GIMAP4 (11747438_a_at) / Fold change /veh GIMAP4 (11747438_a_at) / RFU KRT8 (11758183_x_at) / Fold change /veh KRT8 (11758183_x_at) / RFU CNN1 (11734310_a_at) / Fold change /veh CNN1 (11734310_a_at) / RFU VPS37D (11726825_at) / Fold change /veh VPS37D (11726825_at) / RFU C10orf10 (11716522_x_at) / Fold change /veh C10orf10 (11716522_x_at) / RFU KIR2DL2 /// KIR2DL4 /// KIR2DL5A /// KIR2DL5B /// KIR2DS1 /// KIR2DS2 /// KIR2DS3 /// KIR2DS4 /// KIR3DL3 /// KIR3DL3 /// KIR3DS1 (11738374_at) / Fold change /veh KIR2DL2 /// KIR2DL4 /// KIR2DL5A /// KIR2DL5B /// KIR2DS1 /// KIR2DS2 /// KIR2DS3 /// KIR2DS4 /// KIR3DL3 /// KIR3DL3 /// KIR3DS1 (11738374_at) / RFU C1QL1 (11718748_at) / Fold change /veh C1QL1 (11718748_at) / RFU TMPRSS4 (11747572_a_at) / Fold change /veh TMPRSS4 (11747572_a_at) / RFU HAMP (11756126_x_at) / Fold change /veh HAMP (11756126_x_at) / RFU RNFT2 (11725882_a_at) / Fold change /veh RNFT2 (11725882_a_at) / RFU NR4A2 (11747474_a_at) / Fold change /veh NR4A2 (11747474_a_at) / RFU ABCC12 (11746883_a_at) / Fold change /veh ABCC12 (11746883_a_at) / RFU TMEM136 (11760407_x_at) / Fold change /veh TMEM136 (11760407_x_at) / RFU CLDN22 /// WWC2 (11732394_at) / Fold change /veh CLDN22 /// WWC2 (11732394_at) / RFU HLA-DPB1 (11760878_x_at) / Fold change /veh HLA-DPB1 (11760878_x_at) / RFU SPINT1 (11716480_a_at) / Fold change /veh SPINT1 (11716480_a_at) / RFU GAP43 (11754022_s_at) / Fold change /veh GAP43 (11754022_s_at) / RFU A4GNT (11735810_at) / Fold change /veh A4GNT (11735810_at) / RFU PRB3 (11715151_x_at) / Fold change /veh PRB3 (11715151_x_at) / RFU TUBB4B (11761932_at) / Fold change /veh TUBB4B (11761932_at) / RFU CAPN14 (11732068_a_at) / Fold change /veh CAPN14 (11732068_a_at) / RFU TMCC2 (11721928_a_at) / Fold change /veh TMCC2 (11721928_a_at) / RFU IRGQ (11745062_a_at) / Fold change /veh IRGQ (11745062_a_at) / RFU FAM174B (11720279_a_at) / Fold change /veh FAM174B (11720279_a_at) / RFU TMPRSS4 (11748680_a_at) / Fold change /veh TMPRSS4 (11748680_a_at) / RFU FAM212B (11763350_a_at) / Fold change /veh FAM212B (11763350_a_at) / RFU PLEKHG5 (11743358_a_at) / Fold change /veh PLEKHG5 (11743358_a_at) / RFU ZSCAN30 (11745921_a_at) / Fold change /veh ZSCAN30 (11745921_a_at) / RFU CMKLR1 (11741424_a_at) / Fold change /veh CMKLR1 (11741424_a_at) / RFU LOC101060620 /// MAPK8IP1 (11723275_at) / Fold change /veh LOC101060620 /// MAPK8IP1 (11723275_at) / RFU SPTSSB (11747773_x_at) / Fold change /veh SPTSSB (11747773_x_at) / RFU PRSS12 (11739890_at) / Fold change /veh PRSS12 (11739890_at) / RFU BIN1 (11741810_x_at) / Fold change /veh BIN1 (11741810_x_at) / RFU WNT11 (11732464_a_at) / Fold change /veh WNT11 (11732464_a_at) / RFU C10orf10 (11716521_a_at) / Fold change /veh C10orf10 (11716521_a_at) / RFU C5orf56 (11738089_at) / Fold change /veh C5orf56 (11738089_at) / RFU CYB561 (11721691_x_at) / Fold change /veh CYB561 (11721691_x_at) / RFU ANKRD19P (11752326_a_at) / Fold change /veh ANKRD19P (11752326_a_at) / RFU OR2T12 /// OR2T33 /// OR2T8 (11738714_s_at) / Fold change /veh OR2T12 /// OR2T33 /// OR2T8 (11738714_s_at) / RFU VCAN (11748164_a_at) / Fold change /veh VCAN (11748164_a_at) / RFU JSRP1 (11732532_at) / Fold change /veh JSRP1 (11732532_at) / RFU KRTAP10-11 (11738290_x_at) / Fold change /veh KRTAP10-11 (11738290_x_at) / RFU MYO3A (11730013_a_at) / Fold change /veh MYO3A (11730013_a_at) / RFU EBF3 (11725865_a_at) / Fold change /veh EBF3 (11725865_a_at) / RFU CAMK2N1 (11719241_x_at) / Fold change /veh CAMK2N1 (11719241_x_at) / RFU C5orf56 (11738088_a_at) / Fold change /veh C5orf56 (11738088_a_at) / RFU OLFML3 (11715873_a_at) / Fold change /veh OLFML3 (11715873_a_at) / RFU LOC100653217 /// NTM (11731650_a_at) / Fold change /veh LOC100653217 /// NTM (11731650_a_at) / RFU MAPK11 (11762145_a_at) / Fold change /veh MAPK11 (11762145_a_at) / RFU FIZ1 (11724087_x_at) / Fold change /veh FIZ1 (11724087_x_at) / RFU OASL (11726364_x_at) / Fold change /veh OASL (11726364_x_at) / RFU SOX15 (11748057_x_at) / Fold change /veh SOX15 (11748057_x_at) / RFU CD79A (11719716_a_at) / Fold change /veh CD79A (11719716_a_at) / RFU HIST1H1D (11736915_at) / Fold change /veh HIST1H1D (11736915_at) / RFU CASKIN2 (11723855_a_at) / Fold change /veh CASKIN2 (11723855_a_at) / RFU LOC730098 (11760151_x_at) / Fold change /veh LOC730098 (11760151_x_at) / RFU OR4N2 (11742367_at) / Fold change /veh OR4N2 (11742367_at) / RFU PRRT2 (11749266_a_at) / Fold change /veh PRRT2 (11749266_a_at) / RFU SNX32 (11753110_a_at) / Fold change /veh SNX32 (11753110_a_at) / RFU CDHR5 (11726645_a_at) / Fold change /veh CDHR5 (11726645_a_at) / RFU RCAN1 (11760418_a_at) / Fold change /veh RCAN1 (11760418_a_at) / RFU FAM167A (11723789_a_at) / Fold change /veh FAM167A (11723789_a_at) / RFU FAM26E (11764081_at) / Fold change /veh FAM26E (11764081_at) / RFU ISYNA1 (11749810_s_at) / Fold change /veh ISYNA1 (11749810_s_at) / RFU ACY1 (11761880_at) / Fold change /veh ACY1 (11761880_at) / RFU 11764098_at / Fold change /veh 11764098_at / RFU SAMD14 (11745864_x_at) / Fold change /veh SAMD14 (11745864_x_at) / RFU NPB (11741838_a_at) / Fold change /veh NPB (11741838_a_at) / RFU TMPRSS6 (11731388_a_at) / Fold change /veh TMPRSS6 (11731388_a_at) / RFU KRTAP10-2 (11738614_at) / Fold change /veh KRTAP10-2 (11738614_at) / RFU ARHGAP8 /// PRR5-ARHGAP8 (11727945_x_at) / Fold change /veh ARHGAP8 /// PRR5-ARHGAP8 (11727945_x_at) / RFU KRTAP5-7 /// NADSYN1 (11734609_at) / Fold change /veh KRTAP5-7 /// NADSYN1 (11734609_at) / RFU RASL12 (11751679_a_at) / Fold change /veh RASL12 (11751679_a_at) / RFU CDKN2B (11736163_a_at) / Fold change /veh CDKN2B (11736163_a_at) / RFU PRF1 (11729649_at) / Fold change /veh PRF1 (11729649_at) / RFU, ZNF638 /// ZNF638-IT1 / Fold change vs veh, ZNF638 /// ZNF638-IT1 / RFU, PANK3 / Fold change vs veh, PANK3 / RFU, SH3YL1 / Fold change vs veh, SH3YL1 / RFU, ZEB2 / Fold change vs veh, ZEB2 / RFU, NRIP1 / Fold change vs veh, NRIP1 / RFU, PTTG1IP / Fold change vs veh, PTTG1IP / RFU, CAPN2 / Fold change vs veh, CAPN2 / RFU, MED14 / Fold change vs veh, MED14 / RFU, SNORA58 / Fold change vs veh, SNORA58 / RFU, C1orf63 / Fold change vs veh, C1orf63 / RFU, LRRFIP1 / Fold change vs veh, LRRFIP1 / RFU, NDUFAF7 / Fold change vs veh, NDUFAF7 / RFU, SLC12A2 / Fold change vs veh, SLC12A2 / RFU, IBTK / Fold change vs veh, IBTK / RFU, ESF1 / Fold change vs veh, ESF1 / Fold change vs veh, TMEM50B / RFU, TAOK1 / Fold change vs veh, TAOK1 / RFU, ACBD3 / Fold change vs veh, ACBD3 / RFU, TMA16 / Fold change vs veh, TMA16 / RFU, RWDD3 / Fold change vs veh, RWDD3 / RFU, BCAT1 / Fold change vs veh, BCAT1 / RFU, EDEM3 / Fold change vs veh, EDEM3 / RFU, TMEM33 / Fold change vs veh, TMEM33 / RFU, WDR75 / Fold change vs veh, WDR75 / RFU, AHCTF1 / Fold change vs veh, AHCTF1 / RFU, TFRC / Fold change vs veh, TFRC / RFU, ZDHHC17 / Fold change vs veh, ZDHHC17 / RFU, NOM1 / Fold change vs veh, NOM1 / RFU, ARL8B / Fold change vs veh, ARL8B / RFU, ZBTB11 / Fold change vs veh, ZBTB11 / RFU, TAMM41 / Fold change vs veh, TAMM41 / RFU, KIAA1704 /// LOC100996395 / Fold change vs veh, KIAA1704 /// LOC100996395 / RFU, ING1 / Fold change vs veh, ING1 / RFU, TRMT61B / Fold change vs veh, TRMT61B / RFU, FUBP3 / Fold change vs veh, FUBP3 / RFU, TP53 / Fold change vs veh, TP53 / RFU, TNKS2 / Fold change vs veh, TNKS2 / RFU, ZFP14 / Fold change vs veh, ZFP14 / RFU, ACTR2 / Fold change vs veh, ACTR2 / RFU, PPP3R1 / Fold change vs veh, PPP3R1 / RFU, PIK3R1 / Fold change vs veh, PIK3R1 / RFU, HNRNPA1 / Fold change vs veh, HNRNPA1 / RFU, RNF170 / Fold change vs veh, RNF170 / RFU, ZNF28 / Fold change vs veh, ZNF28 / RFU, RNGTT / Fold change vs veh, RNGTT / RFU, OGT / Fold change vs veh, OGT / RFU, BRD1 / Fold change vs veh, BRD1 / RFU, MARS / Fold change vs veh, MARS / RFU, ZNF655 / Fold change vs veh, ZNF655 / RFU, FAHD1 / Fold change vs veh, FAHD1 / RFU, BDP1 / Fold change vs veh, BDP1 / RFU, LRRCC1 / Fold change vs veh, LRRCC1 / RFU, ARID1A / Fold change vs veh, ARID1A / RFU, ZNF146 / Fold change vs veh, ZNF146 / RFU, ZNF330 / Fold change vs veh, ZNF330 / RFU, GPN3 / Fold change vs veh, GPN3 / RFU, C9orf123 / Fold change vs veh, C9orf123 / RFU, N4BP2L2 / Fold change vs veh, N4BP2L2 / RFU, ARFIP1 / Fold change vs veh, ARFIP1 / RFU, FAM179B / Fold change vs veh, FAM179B / RFU, BCL10 / Fold change vs veh, BCL10 / RFU, UHRF1BP1L / Fold change vs veh, UHRF1BP1L / RFU, BET1 / Fold change vs veh, BET1 / RFU, CNOT2 / Fold change vs veh, CNOT2 / RFU, ZNF268 / Fold change vs veh, ZNF268 / Fold change vs veh, ZNF507 / RFU, DGCR2 / Fold change vs veh, DGCR2 / RFU, WDSUB1 / Fold change vs veh, WDSUB1 / Fold change vs veh, HSP90B1 /// MIR3652 / RFU, ADSS / Fold change vs veh, ADSS / RFU, GK / Fold change vs veh, GK / RFU, ZNF148 / Fold change vs veh, ZNF148 / RFU, TAF9 / Fold change vs veh, TAF9 / RFU, SLC1A5 / Fold change vs veh, SLC1A5 / RFU, SLMO2 / Fold change vs veh, SLMO2 / RFU, ABCC4 / Fold change vs veh, ABCC4 / RFU, LOC101060439 /// RAP1B / Fold change vs veh, LOC101060439 /// RAP1B / RFU, RFX7 / Fold change vs veh, RFX7 / RFU, GTPBP10 / Fold change vs veh, GTPBP10 / RFU, CNEP1R1 / Fold change vs veh, CNEP1R1 / RFU, BIVM-ERCC5 /// ERCC5 / Fold change vs veh, BIVM-ERCC5 /// ERCC5 / RFU, ILF3 / Fold change vs veh, ILF3 / RFU 11762660_at / Fold change /veh 11762660_at / RFU VCAN (11757783_s_at) / Fold change /veh VCAN (11757783_s_at) / RFU DDX43 (11728927_at) / Fold change /veh DDX43 (11728927_at) / RFU KRT8 (11758188_x_at) / Fold change /veh KRT8 (11758188_x_at) / RFU NKD1 (11759106_at) / Fold change /veh NKD1 (11759106_at) / RFU SRD5A1 (11742802_a_at) / Fold change /veh SRD5A1 (11742802_a_at) / RFU TPSAB1 /// TPSB2 (11721975_s_at) / Fold change /veh TPSAB1 /// TPSB2 (11721975_s_at) / RFU GSTM3 (11746129_a_at) / Fold change /veh GSTM3 (11746129_a_at) / RFU IL23R (11737362_x_at) / Fold change /veh IL23R (11737362_x_at) / RFU TMEM51 (11727254_a_at) / Fold change /veh TMEM51 (11727254_a_at) / RFU PIWIL2 (11732686_x_at) / Fold change /veh PIWIL2 (11732686_x_at) / RFU ORM1 (11744905_x_at) / Fold change /veh ORM1 (11744905_x_at) / RFU CCDC152 (11743942_at) / Fold change /veh CCDC152 (11743942_at) / RFU ECM1 (11717891_a_at) / Fold change /veh ECM1 (11717891_a_at) / RFU IL23R (11748794_a_at) / Fold change /veh IL23R (11748794_a_at) / RFU TNFAIP8L3 (11732012_x_at) / Fold change /veh TNFAIP8L3 (11732012_x_at) / RFU MBOAT4 (11741988_at) / Fold change /veh MBOAT4 (11741988_at) / RFU 11764193_at / Fold change /veh 11764193_at / RFU TMEM53 (11763286_at) / Fold change /veh TMEM53 (11763286_at) / RFU MAGEB2 (11727129_at) / Fold change /veh MAGEB2 (11727129_at) / RFU TMEM200A (11744735_a_at) / Fold change /veh TMEM200A (11744735_a_at) / RFU CCDC152 (11751479_a_at) / Fold change /veh CCDC152 (11751479_a_at) / RFU FAM211A (11726209_a_at) / Fold change /veh FAM211A (11726209_a_at) / RFU RGS16 (11746705_a_at) / Fold change /veh RGS16 (11746705_a_at) / RFU VCAN (11755009_s_at) / Fold change /veh VCAN (11755009_s_at) / RFU RHOB (11743442_s_at) / Fold change /veh RHOB (11743442_s_at) / RFU RGS16 (11720943_a_at) / Fold change /veh RGS16 (11720943_a_at) / RFU RGS16 (11720944_at) / Fold change /veh RGS16 (11720944_at) / RFU, VPS4B / Fold change vs veh, VPS4B / RFU, CREB1 / Fold change vs veh, CREB1 / RFU, DNAJC13 / Fold change vs veh, DNAJC13 / RFU, GNAQ / Fold change vs veh, GNAQ / RFU, CDK5R1 / Fold change vs veh, CDK5R1 / RFU, ZRANB3 / Fold change vs veh, ZRANB3 / RFU, CUL4A / Fold change vs veh, CUL4A / RFU, CCNY / Fold change vs veh, CCNY / RFU, UFL1 / Fold change vs veh, UFL1 / RFU, COG3 / Fold change vs veh, COG3 / RFU, DIAPH2 / Fold change vs veh, DIAPH2 / RFU, SKA2 / Fold change vs veh, SKA2 / RFU, AFF3 / Fold change vs veh, AFF3 / RFU, LMF1 / Fold change vs veh, LMF1 / RFU, IPO11 / Fold change vs veh, IPO11 / RFU, DFFB / Fold change vs veh, DFFB / RFU, FOXP1 / Fold change vs veh, FOXP1 / RFU, CARD8 / Fold change vs veh, CARD8 / RFU, STRN3 / Fold change vs veh, STRN3 / RFU, ADK / Fold change vs veh, ADK / RFU, RASSF2 / Fold change vs veh, RASSF2 / RFU, WIPF1 / Fold change vs veh, WIPF1 / RFU, LARP1B / Fold change vs veh, LARP1B / RFU, RASA1 / Fold change vs veh, RASA1 / RFU, RB1 / Fold change vs veh, RB1 / RFU, PPFIA1 / Fold change vs veh, PPFIA1 / RFU, MAT2A / Fold change vs veh, MAT2A / RFU, CCT5 / Fold change vs veh, CCT5 / RFU, WDR92 / Fold change vs veh, WDR92 / RFU, CUX1 / Fold change vs veh, CUX1 / RFU, TTC7A / Fold change vs veh, TTC7A / RFU, TMEM135 / Fold change vs veh, TMEM135 / RFU, DEPTOR / Fold change vs veh, DEPTOR / RFU, CPM / Fold change vs veh, CPM / RFU, DNAJB6 / Fold change vs veh, DNAJB6 / RFU, CACNA2D3 / Fold change vs veh, CACNA2D3 / RFU, DTX4 / Fold change vs veh, DTX4 / RFU, TFCP2 / Fold change vs veh, TFCP2 / RFU, GMCL1 /// GMCL1P1 / Fold change vs veh, GMCL1 /// GMCL1P1 / RFU, AEBP2 / Fold change vs veh, AEBP2 / RFU, SNHG1 /// SNORD22 /// SNORD25 /// SNORD26 /// SNORD27 /// SNORD28 /// SNORD29 /// SNORD31 / Fold change vs veh, SNHG1 /// SNORD22 /// SNORD25 /// SNORD26 /// SNORD27 /// SNORD28 /// SNORD29 /// SNORD31 / Fold change (Aza/veh), C12orf56 (ProbeSet 11735607_a_at) / Fold change (ACY-1035/veh), C12orf56 (ProbeSet 11735607_a_at) / Fold change (Aza/veh), FGFR1OP (ProbeSet 11751329_s_at) / Fold change (ACY-1035/veh), FGFR1OP (ProbeSet 11751329_s_at) / Fold change (Aza/veh), VPS36 (ProbeSet 11739960_a_at) / Fold change (ACY-1035/veh), VPS36 (ProbeSet 11739960_a_at) / RFU SYPL1 (11715823_x_at) / Fold change /veh SYPL1 (11715823_x_at) / RFU IGFBP7 (11715501_s_at) / Fold change /veh IGFBP7 (11715501_s_at) / RFU REEP3 (11722064_at) / Fold change /veh REEP3 (11722064_at) / RFU IGLL1 (11728026_x_at) / Fold change /veh IGLL1 (11728026_x_at): dose or concentration left out as unconfirmed
Details: MV-4-11 cells, 48 hours

## Nc1ccc(-c2cccs2)cc1NC(=O)c1ccc2c(c1)cc(C1CC1)n2CCN1CCOCC1 [ACY-1035]
  Fold change /veh C10orf10 (11716522_x_at): 1.10
